In ChEMBL document CHEMBL4819127, “Syntheses and antimicrobial activities of ogipeptin derivatives” (Bioorg Med Chem Lett, 2021):
Values after ≈ are worked out from the molar mass of the structure shown.

Tests used:
Klebsiella pneumoniae [1] = assay: Antibacterial activity against Klebsiella pneumoniae ATCC 700721 assessed as bacterial growth inhibition; type: functional
Klebsiella pneumoniae [2] = assay: Antibacterial activity against Klebsiella pneumoniae JCM 1662 assessed as bacterial growth inhibition; type: functional
Pseudomonas aeruginosa [3] = assay: Antibacterial activity against Pseudomonas aeruginosa ATCC 27853 assessed as bacterial growth inhibition; type: functional
HepG2 = assay: Cytotoxicity against human HepG2 cells; type: functional
Escherichia coli = assay: Antibacterial activity against Escherichia coli ATCC 47076 assessed as bacterial growth inhibition; type: functional
Acinetobacter baumannii [4] = assay: Antibacterial activity against Acinetobacter baumannii IHMA 1312713 assessed as bacterial growth inhibition; type: functional
Acinetobacter baumannii [5] = assay: Antibacterial activity against Acinetobacter baumannii ATCC 19606 assessed as bacterial growth inhibition; type: functional; conditions: ATCC 19606 = CIP 70.34 = JCM 6841
[6] = (§1) Cytotoxicity against HEK293 cells; type: cell-based; conditions: human, HEK293 cells
Klebsiella pneumoniae [7] = assay: Antibacterial activity against Klebsiella pneumoniae IHMA 1387833 assessed as bacterial growth inhibition; type: functional
Pseudomonas aeruginosa [8] = assay: Antibacterial activity against Pseudomonas aeruginosa ATCC 15692 assessed as bacterial growth inhibition; type: functional
Pseudomonas aeruginosa [9] = assay: Antibacterial activity against Pseudomonas aeruginosa IHMA 1375891 assessed as bacterial growth inhibition; type: functional
Klebsiella pneumoniae [10] = assay: Antibacterial activity against Klebsiella pneumoniae ATCC 10031 assessed as bacterial growth inhibition; type: functional
[11] = Lipophilicity, logD of compound; type: physicochemical; conditions: octanol/water
HEK293 = assay: as §1; type: cell-based; conditions: human, hek293

MIC (Klebsiella pneumoniae [1]) | MIC (Klebsiella pneumoniae [2]) | MIC (Pseudomonas aeruginosa [3]) | MIC (Escherichia coli) | MIC (Acinetobacter baumannii [4]) | MIC (Acinetobacter baumannii [5]) | MIC (Klebsiella pneumoniae [7]) | MIC (Pseudomonas aeruginosa [8]) | MIC (Pseudomonas aeruginosa [9]) | MIC (Klebsiella pneumoniae [10]) | logD [11] | Compound | CC50 (HepG2) | CC50 [6] | CC50 (HEK293)
8 µg/mL (≈ 8.17 µM) | > 256 µg/mL | 4 µg/mL (≈ 4.08 µM) | 2 µg/mL (≈ 2.04 µM) | 256 µg/mL (≈ 261 µM) | 2 µg/mL (≈ 2.04 µM) | > 256 µg/mL | > 256 µg/mL | > 256 µg/mL | 2 µg/mL (≈ 2.04 µM) | 2.829 | C/C=C1\NC(=O)C(NC(=O)c2cc3cc(Cl)ccc3o2)C(O)CNC(=O)C(C(O)CN)NC(=O)C(C(O)CN)NC(=O)[C@H](CCCNC(=N)N)NC(=O)[C@H](CC(C)C)NC(=O)[C@H](CCN)NC1=O (stereo partly drawn) | > 64 µM | > 64 µM | 
> 256 µg/mL | > 256 µg/mL | 4 µg/mL (≈ 4.19 µM) | 2 µg/mL (≈ 2.09 µM) | > 256 µg/mL | 2 µg/mL (≈ 2.09 µM) | > 256 µg/mL | 64 µg/mL (≈ 67 µM) | 128 µg/mL (≈ 134 µM) | 1 µg/mL (≈ 1.05 µM) | 3.756 | C/C=C1\NC(=O)C(NC(=O)CCCCCCCCC)C(O)CNC(=O)C(C(O)CN)NC(=O)C(C(O)CN)NC(=O)[C@H](CCCNC(=N)N)NC(=O)[C@H](CC(C)C)NC(=O)[C@H](CCN)NC1=O (stereo partly drawn) | > 64 µM | > 64 µM | 

Further lines, the compound ahead of its results:

Compound | MIC (Klebsiella pneumoniae [1]) | MIC (Klebsiella pneumoniae [2]) | MIC (Pseudomonas aeruginosa [3]) | MIC (Escherichia coli) | MIC (Acinetobacter baumannii [4]) | MIC (Acinetobacter baumannii [5]) | MIC (Klebsiella pneumoniae [7]) | MIC (Pseudomonas aeruginosa [8]) | MIC (Pseudomonas aeruginosa [9]) | MIC (Klebsiella pneumoniae [10]) | logD [11] | CC50 (HepG2) | CC50 [6] | CC50 (HEK293)
C/C=C1\NC(=O)C(NC(=O)COc2ccc(/C=C/C(=O)OC(C)(C)C)cc2)C(O)CNC(=O)C(C(O)CN)NC(=O)C(C(O)CN)NC(=O)[C@H](CCCNC(=N)N)NC(=O)[C@H](CC(C)C)NC(=O)[C@H](CCN)NC1=O (stereo partly drawn) | 2 µg/mL (≈ 1.88 µM) | > 256 µg/mL | 4 µg/mL (≈ 3.77 µM) | 2 µg/mL (≈ 1.88 µM) | 128 µg/mL (≈ 121 µM) | 2 µg/mL (≈ 1.88 µM) | > 256 µg/mL | 8 µg/mL (≈ 7.54 µM) | 128 µg/mL (≈ 121 µM) | 2 µg/mL (≈ 1.88 µM) | 2.65 | > 64 µM | > 64 µM | 
C/C=C1\NC(=O)C(NC(=O)c2ccc(Oc3ccccc3CCCC)cc2)C(O)CNC(=O)C(C(O)CN)NC(=O)C(C(O)CN)NC(=O)[C@H](CCCNC(=N)N)NC(=O)[C@H](CC(C)C)NC(=O)[C@H](CCN)NC1=O (stereo partly drawn) | 4 µg/mL (≈ 3.8 µM) | 4 µg/mL (≈ 3.8 µM) | 4 µg/mL (≈ 3.8 µM) | 2 µg/mL (≈ 1.9 µM) | 8 µg/mL (≈ 7.6 µM) | 2 µg/mL (≈ 1.9 µM) | > 256 µg/mL | 64 µg/mL (≈ 60.8 µM) | 64 µg/mL (≈ 60.8 µM) | 4 µg/mL (≈ 3.8 µM) | 4.984 | > 64 µM | > 64 µM | 
COLISTIN |  |  |  |  |  |  |  |  |  |  |  |  |  | > 64 µM
